In article PMC10053770, “Assessment of the Pharmacokinetics, Disposition, and Duration of Action of the Tumour-Targeting Peptide CEND-1” (International Journal of Molecular Sciences, 2023):
Where two headings read alike, the source gives them in different places.

What was measured:
[1] = Single-dose intravenous pharmacokinetics in dogs; format: in vivo, dog; details: for clearance: read-out: Cl_obs (converted); for Vd: read-out: V
Method: The in vivo pharmacokinetic profile of CEND-1 after a single dose was evaluated in four non-GLP animal studies including Sprague-Dawley rats, Beagle dogs, cynomolgus monkeys and BALB/c mice following the intravenous injection of CEND-1 at various doses ([…]; 1.5, 4.5 and 13.5 mg/kg for mice) (Table 1). Blood samples were collected for pharmacokinetic evaluations pre-dose and at 1, 5, 10, 15 and 30 min, and 1, 2 and 6 h post-dose in rats, dogs and monkeys, and 3, 10, 30 and 90 min, and 4 and 8 h post-dose in mice.
(§1) Plasma CEND-1 was quantified by validated liquid chromatography coupled with a tandem mass spectrometry (LC/MS/MS) assay. Tolbutamide or leuprorelin acetate were used as internal standards. AB Sciex Triple Quad API 5500 (Sciex, Framingham, MA, USA), operated in the positive electrospray ionization (ESI) mode, was used to monitor the precursor to production ion transitions of m/z 495.4→69.9.
(§2) No formal sample size calculation was performed. Samples of 2–12 animals and 31 pancreatic cancer patients were considered acceptable to perform initial pharmacokinetic evaluations. The concentrations of CEND-1 were used to calculate PK parameters by employing a non-compartmental analysis (Phoenix^TM WinNonlin, version 6.1). The linear log trapezoidal algorithm, with a weighting of 1/Y*Y was used for parameter calculations. Mean PK parameters were calculated from individual animals in each treatment group. Concentrations below the LLOQ (if any) were excluded for the calculation of PK parameters. The mean values of PK parameters were calculated using Microsoft Excel version 2010.

[2] = Single-dose intravenous pharmacokinetics in cynomolgus monkeys; format: in vivo; details: cynomolgus monkey; for clearance: read-out: Cl_obs (converted); for Vd: read-out: V
Method: The in vivo pharmacokinetic profile of CEND-1 after a single dose was evaluated in four non-GLP animal studies including Sprague-Dawley rats, Beagle dogs, cynomolgus monkeys and BALB/c mice following the intravenous injection of CEND-1 at various doses (1, 5 and 50 mg/kg for rats, dogs and monkeys; 1.5, 4.5 and 13.5 mg/kg for mice) (Table 1). Blood samples were collected for pharmacokinetic evaluations pre-dose and at 1, 5, 10, 15 and 30 min, and 1, 2 and 6 h post-dose in rats, dogs and monkeys, and 3, 10, 30 and 90 min, and 4 and 8 h post-dose in mice.
as §1, §2

[3] = Clinical pharmacokinetics in patients with metastatic pancreatic ductal adenocarcinoma; format: in vivo, human; details: for Vd: 3.2 mg/kg, read-out: Vz
Method: In this study, CEND-1 PK data from up to 28 participants receiving either 1.6 mg/kg (n = 14) and 3.2 mg/kg (n = 14) in the expansion cohort were analysed. Details of this phase I clinical study, conducted in patients with metastatic pancreatic ductal adenocarcinoma receiving CEND-1 in combination with nab-paclitaxel and gemcitabine, are described in detail by Dean et al.. PK parameters were measured following CEND-1 monotherapy (run-in day 1) and combination therapy (cycle 1 day 1 and cycle 6 day 1, if applicable).
In the initial monotherapy run-in phase, single doses of CEND-1 were given one to seven days before the start of the combination chemotherapy. In the combination therapy phase, patients first received an intravenous infusion of nab-paclitaxel (125 mg/m^2) over 30 min (±3 min). CEND-1 was then given intravenously as a slow IV push over 1 min (±30 s). The intravenous infusion of gemcitabine (1000 mg/m^2 over 30 min (±3 min)) was started within 10 min of CEND-1 administration. On all occasions, plasma samples were collected from patients before the CEND-1 infusion and at 3 min (±1 min), 15 min (±3 min), 30 min (±3 min), 1 hour (±5 min), ¾ h (±10 min) and 6/8 h (±10 min) after completion of the infusion.
as §2

[4] = Detailed clinical and cage-side observations in pre-clinical species; format: in vivo, mice, rats, dogs and monkeys; details: any of the pre-clinical species tested, single IV dose
[5] = parameters: method as in PMID 35803294; details: phase I trial, monotherapy and in combination with chemotherapy drugs; cited from earlier work
[6] = Beagle dog, F, n=3, 5 mg/kg single IV, plasma LC/MS/MS, non-compartmental, mean (SD)
[7] = Beagle dog, F, n=5, 75 mg/kg single IV, plasma LC/MS/MS, non-compartmental, mean (SD)
[8] = female, Beagle dog, F, n=3, 1 mg/kg single IV, plasma LC/MS/MS, non-compartmental, mean (SD)
[9] = female, Beagle dog, F, n=5, 75 mg/kg single IV, plasma LC/MS/MS, non-compartmental, mean (SD)
[10] = male, Beagle dog, M, n=3, 1 mg/kg single IV, plasma LC/MS/MS, non-compartmental, mean (SD)
[11] = male, Beagle dog, M, n=3, 5 mg/kg single IV, plasma LC/MS/MS, non-compartmental, mean (SD)
[12] = male, Beagle dog, M, n=5, 75 mg/kg single IV, plasma LC/MS/MS, non-compartmental, mean (SD)
[13] = male, M, n=3, 5 mg/kg single IV, plasma LC/MS/MS, non-compartmental, mean (SD)
[14] = male, M, n=3, 50 mg/kg single IV, plasma LC/MS/MS, non-compartmental, mean (SD)
[15] = pancreatic cancer patients, 3.2 mg/kg IV, plasma, Cycle 1 Day 1 with nab-paclitaxel+gemcitabine, mean, N=9
[16] = pancreatic cancer patients, 3.2 mg/kg IV, plasma, Cycle 1 Day 1 with nab-paclitaxel+gemcitabine, mean, N=13
[17] = pancreatic cancer patients, 3.2 mg/kg IV, plasma, Cycle 6 Day 1 with nab-paclitaxel+gemcitabine, N=1
[18] = pancreatic cancer patients, 3.2 mg/kg IV, plasma, Cycle 6 Day 1 with nab-paclitaxel+gemcitabine, mean, N=5
[19] = pancreatic cancer patients, 3.2 mg/kg IV, plasma, Run-In (monotherapy), mean, N=7
[20] = pancreatic cancer patients, 3.2 mg/kg IV, plasma, Run-In (monotherapy), mean, N=8

In the case of CC(=O)N[C@H]1CSSC[C@@H](C(N)=O)NC(=O)[C@H](CC(=O)O)NC(=O)[C@@H]2CCCN2C(=O)CNC(=O)[C@H](CCCCN)NC(=O)[C@H](CC(=O)O)NC(=O)CNC(=O)[C@H](CCCNC(=N)N)NC1=O [CEND-1], the t1/2 ([1]; Beagle dog, F, n=3, 1 mg/kg single IV, plasma LC/MS/MS, non-compartmental, mean (SD)) is reported as 0.668 (0.0312) h, the AUC(0-inf) [1, 6] is reported as 20,443 (2530) h*ng/mL and the Cl_obs [1, 6] is reported as 247 (32.9) mL/hr/kg. The V [1, 6] was 230 (14.6) mL/kg, the t1/2 [1, 6] was 0.648 (0.0486) h and the AUC(0-inf) [1, 7] was 323,936 (25,283) h*ng/mL. For the same compound, the t1/2 [1, 7] was 0.620 (0.0439) h, the half-life ([1]; Beagle, dog, plasma, dogs, single intravenous dose, read-out: average half-life) was ~40 min and the C0 [1, 8] was 4780 ng/mL. The AUC(0-inf) ([1]; female, Beagle dog, F, n=3, 1 mg/kg single IV, plasma LC/MS/MS, non-compartmental, mean (SD), read-out: AUC0-inf) was 3950 ng·h/mL, the clearance [1, 8] was 4.25 mL/min/kg and the Vd [1, 8] was 0.253 L/kg. For the same compound, the C0 ([1]; female, Beagle dog, F, n=3, 5 mg/kg single IV, plasma LC/MS/MS, non-compartmental, mean (SD)) was 25100 ng/mL, the C0 [1, 9] was 476000 ng/mL and the clearance [1, 9] was 3.88 mL/min/kg. The Vd [1, 9] was 0.208 L/kg, the C0 [1, 10] was 6010 ng/mL and the AUC(0-inf) ([1]; male, Beagle dog, M, n=3, 1 mg/kg single IV, plasma LC/MS/MS, non-compartmental, mean (SD), read-out: AUC0-inf) was 4030 ng·h/mL. It also gave a clearance [1, 10] of 4.22 mL/min/kg, a Vd [1, 10] of 0.241 L/kg and a half-life ([1]; male, Beagle dog, M, n=3, 1 mg/kg single IV, plasma LC/MS/MS, non-compartmental, mean (SD), read-out: t1/2 (converted)) of 39.9 min. It also gave a C0 [1, 11] of 30200 ng/mL, an AUC(0-inf) ([1]; male, Beagle dog, M, n=3, 5 mg/kg single IV, plasma LC/MS/MS, non-compartmental, mean (SD), read-out: AUC0-inf) of 20600 ng·h/mL and a clearance [1, 11] of 4.05 mL/min/kg. For the same compound, the Vd [1, 11] was 0.23 L/kg, the half-life ([1]; male, Beagle dog, M, n=3, 5 mg/kg single IV, plasma LC/MS/MS, non-compartmental, mean (SD), read-out: t1/2 (converted)) was 39.3 min and the C0 [1, 12] was 461000 ng/mL. The AUC(0-inf) ([1]; male, Beagle dog, M, n=5, 75 mg/kg single IV, plasma LC/MS/MS, non-compartmental, mean (SD), read-out: AUC0-inf) was 327000 ng·h/mL, the clearance [1, 12] was 3.83 mL/min/kg and the Vd [1, 12] was 0.204 L/kg. For the same compound, the half-life ([1]; male, Beagle dog, M, n=5, 75 mg/kg single IV, plasma LC/MS/MS, non-compartmental, mean (SD), read-out: t1/2 (converted)) was 36.9 min, the half-life ([2]; plasma, male cynomolgus monkeys, IV 5 and 50 mg/kg, read-out: average half-life) was ~55 min and the AUC(0-inf) [2, 13] was 28200 ng·h/mL. It also gave a C0 [2, 13] of 55100 ng/mL, a clearance [2, 13] of 2.98 mL/min/kg and a Vd [2, 13] of 0.204 L/kg. The half-life ([2]; male, M, n=3, 5 mg/kg single IV, plasma LC/MS/MS, non-compartmental, mean (SD), read-out: t1/2 (converted)) was 53.3 min, the AUC(0-inf) [2, 14] was 421000 ng·h/mL and the C0 [2, 14] was 602000 ng/mL. For the same compound, the clearance [2, 14] was 2.97 mL/min/kg, the Vd [2, 14] was 0.162 L/kg and the half-life ([2]; male, M, n=3, 50 mg/kg single IV, plasma LC/MS/MS, non-compartmental, mean (SD), read-out: t1/2 (converted)) was 57.4 min. For the same compound, the Vd ([3]; human, plasma, iv, pancreatic cancer patients, 3.2 mg/kg IV, plasma, Cycle 1 Day 1 with nab-paclitaxel+gemcitabine, mean, N=9) was 0.263 L/kg, the Vd ([3]; human, plasma, iv, pancreatic cancer patients, 3.2 mg/kg IV, plasma, Run-In (monotherapy), mean, N=7) was 0.269 L/kg and the Tmax ([3]; human, plasma, iv, patients, run-in day 1, 1.6 and 3.2 mg/kg, read-out: time of peak plasma concentration (first post-dose PK sampling timepoint) (converted)) was 3 min. It also gave a level at 8 h ([3]; human, plasma, patients, run-in day 1, 1.6 and 3.2 mg/kg IV, SD = 317.9, read-out: mean plasma concentration by 8 h post-dose) of 439 ng/mL, an AUC0-t ([3]; human, pancreatic cancer patients, 3.2 mg/kg IV, plasma, Cycle 6 Day 1 with nab-paclitaxel+gemcitabine, mean, N=5, read-out: AUC0-t) of 30600 ng·h/mL and a Cmax ([3]; human, pancreatic cancer patients, 3.2 mg/kg IV, plasma, Cycle 6 Day 1 with nab-paclitaxel+gemcitabine, mean, N=5, read-out: Cmax) of 25800 ng/mL. For the same compound, the Tmax ([3]; human, pancreatic cancer patients, 3.2 mg/kg IV, plasma, Cycle 6 Day 1 with nab-paclitaxel+gemcitabine, mean, N=5, read-out: Tmax) was 3.78 min, the AUC0-inf/D [3, 15] was 9592 kg·ng·h/mL and the AUC(0-inf) [3, 15] was 30,690 h*ng/mL. For the same compound, the CL [3, 15] was 1.792 mL/min/kg, the t1/2 [3, 15] was 103.5 min and the λlast [3, 15] was 0.4082 h⁻¹. For the same compound, the AUC0-t [3, 16] was 28,610 h*ng/mL, the AUC0-t/D [3, 16] was 8942 kg·ng·h/mL and the Cmax [3, 16] was 24,050 ng/mL. For the same compound, the Cmax/D [3, 16] was 7514 kg*ng/mL/m, the Tlast [3, 16] was 5.767 h and the Tmax [3, 16] was 6.78 min. For the same compound, the AUC0-inf/D [3, 17] was 10,440 h*kg*ng/mL, the AUC(0-inf) [3, 17] was 33,400 h*ng/mL and the CL [3, 17] was 1.6 mL/min/kg. For the same compound, the Vz [3, 17] was 0.2209 L/kg, the t1/2 [3, 17] was 95.88 min and the λlast [3, 17] was 0.4338 h⁻¹. It also gave an AUC0-t/D [3, 18] of 9558 kg·ng·h/mL, a Cmax/D [3, 18] of 8050 kg*ng/mL/m and a Tlast [3, 18] of 4.897 h. The AUC0-inf/D [3, 19] was 10,800 h*kg*ng/mL, the AUC(0-inf) [3, 19] was 34,560 h*ng/mL and the CL [3, 19] was 1.63 mL/min/kg. For the same compound, the t1/2 [3, 19] was 117.4 min, the λlast [3, 19] was 0.3607 h⁻¹ and the AUC0-t [3, 20] was 31,330 h*ng/mL. The AUC0-t/D [3, 20] was 9791 kg·ng·h/mL, the Cmax [3, 20] was 31,210 ng/mL and the Tlast [3, 20] was 6.725 h. The Tmax [3, 20] was 7.02 min, the plasma half-life ([3]; patients, intravenous administration) was ~120 min and the “detailed clinical observations and cage-side observations” value [4] was “no test-article-related abnormalities”. The safety profile [5] was “acceptable safety profile”.
